Source: patent US6461997B1, “Triazole sulfones having herbicidal activity” (Monsanto Technology LLC, priority 1999, dated 2002)

What was measured:
POLCO (wild buckwheat) = assay: Pre-emergence herbicidal activity, cool season; type: in vivo, Polygonum convolvulus; conditions: lowest tested rate with 80% or greater inhibition; rates 300, 100, 30, 10 g/ha; about 14 days
Outline: (§1)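 Each pot received seeds on sterilized fertilized topsoil, a soil cover, and a surface spray of compound (300–10 g/ha, acetone/water 50:50). Plants grew about 14 days at 30/21 °C (PANMI, DIGSA) or 18/13 °C (ALOMY, POLCO) before inhibition was rated against untreated pots to give GR80.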

[1] = system: GALAP (catchweed bedstraw); assay: Pre-emergence herbicidal activity, cool season; type: in vivo, Galium aparine; conditions: lowest tested rate with 80% or greater inhibition; rates 300, 100, 30, 10 g/ha; about 14 days
Outline: (§2)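 Seeds sown in sterilised fertilised topsoil received surface-applied compound in 50:50 acetone/water, typically at 300, 100, 30 and 10 g/ha, then greenhouse-grown at 30/21° C (warm-season species) or 18/13° C (cool-season species). Percent inhibition versus untreated plants was scored at about 14 days, giving GR80; an asterisk marks activity short of 80% at the top rate.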

[2] = system: AGSST (creeping bentgrass); assay: Pre-emergence herbicidal activity, cool season; type: in vivo, Agrostis stolonifera; conditions: GR80 = lowest tested rate (300, 100, 30, 10 g/ha) with 80% or greater inhibition; approx. 14 days after treating; 18/13° C.
Outline: as §2

SETVI (green foxtail) = assay: Pre-emergence herbicidal activity, cool season; type: in vivo, Setaria viridis; conditions: GR80 = lowest tested rate (300, 100, 30, 10 g/ha) with 80% or greater inhibition; approx. 14 days after treating; 18/13° C.
Outline: as §2

ALOMY (blackgrass) = assay: Pre-emergence herbicidal activity, cool season; type: in vivo, Alopecurus myosuroides; conditions: GR80 = lowest tested rate (300, 100, 30, 10 g/ha) with 80% or greater inhibition; approx. 14 days after treating; 18/13° C.
Outline: as §1

[3] = system: SORHA (johnsongrass (seedling)); assay: Pre-emergence herbicidal activity, warm season; type: in vivo, Sorghum halepense; conditions: GR80 = lowest tested rate (300, 100, 30, 10 g/ha) with 80% or greater inhibition; approx. 14 days after treating; 30/21° C.
Outline: (§3)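 Activity is expressed as the rate giving 80% inhibition, with 300, 100, 30 and 10 g/ha typically tested. An asterisk marks activity short of 80% at the top rate. Warm-season grasses were held at 30/21 °C; cool-season blackgrass and wild buckwheat at 18/13 °C; scoring at about 14 days.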

SOLNI (black nightshade) = assay: Pre-emergence herbicidal activity, warm season; type: in vivo, Solanum nigrum; conditions: GR80 = lowest tested rate (300, 100, 30, 10 g/ha) with 80% or greater inhibition; approx. 14 days after treating; 30/21° C.
Outline: as §2

SINAR (wild mustard) = assay: Pre-emergence herbicidal activity, cool season; type: in vivo, Sinapis arvensis; conditions: lowest tested rate with 80% or greater inhibition; rates 300, 100, 30, 10 g/ha; about 14 days
Outline: as §2

SORVU (shattercane) = assay: Pre-emergence herbicidal activity, warm season; type: in vivo, Sorghum vulgare; conditions: GR80 = lowest tested rate (300, 100, 30, 10 g/ha) with 80% or greater inhibition; approx. 14 days after treating; 30/21° C.
Outline: as §3

LOLMG (annual ryegrass) = assay: Pre-emergence herbicidal activity, cool season; type: in vivo, Lolium multiflorum; conditions: GR80 = lowest tested rate (300, 100, 30, 10 g/ha) with 80% or greater inhibition; approx. 14 days after treating; 18/13° C.
Outline: as §2

[4] = system: LAMPU (purple deadnettle); assay: Pre-emergence herbicidal activity, cool season; type: in vivo, Lamium purpureum; conditions: lowest tested rate with 80% or greater inhibition; rates 300, 100, 30, 10 g/ha; about 14 days
Outline: as §2

SASKR (russian thistle) = assay: Pre-emergence herbicidal activity, cool season; type: in vivo, Salsola kali; conditions: lowest tested rate with 80% or greater inhibition; rates 300, 100, 30, 10 g/ha; about 14 days
Outline: as §2

[5] = system: BRAPP (broadleaf signalgrass); assay: Pre-emergence herbicidal activity, warm season; type: in vivo, Brachiaria platyphylla; conditions: GR80 = lowest tested rate (300, 100, 30, 10 g/ha) with 80% or greater inhibition; approx. 14 days after treating; 30/21° C.
Outline: as §3

PANDI (fall panicum) = assay: Pre-emergence herbicidal activity, warm season; type: in vivo, Panicum dichotomiflorum; conditions: GR80 = lowest tested rate (300, 100, 30, 10 g/ha) with 80% or greater inhibition; approx. 14 days after treating; 30/21° C.
Outline: as §3

ECHCG (barnyardgrass) = assay: Pre-emergence herbicidal activity, warm season; type: in vivo, Echinochloa crus-galli; conditions: GR80 = lowest tested rate (300, 100, 30, 10 g/ha) with 80% or greater inhibition; approx. 14 days after treating; 30/21° C.
Outline: as §3

DIGSA (large crabgrass) = assay: Pre-emergence herbicidal activity, warm season; type: in vivo, Digitaria sanguinalis; conditions: GR80 = lowest tested rate (300, 100, 30, 10 g/ha) with 80% or greater inhibition; approx. 14 days after treating; 30/21° C.
Outline: as §1

POROL (common purslane) = assay: Pre-emergence herbicidal activity, warm season; type: in vivo, Portulaca oleracea; conditions: GR80 = lowest tested rate (300, 100, 30, 10 g/ha) with 80% or greater inhibition; approx. 14 days after treating; 30/21° C.
Outline: as §2

[6] = system: CHEAL (common lambsquarters); assay: Pre-emergence herbicidal activity, warm season; type: in vivo, Chenopodium album; conditions: GR80 = lowest tested rate (300, 100, 30, 10 g/ha) with 80% or greater inhibition; approx. 14 days after treating; 30/21° C.
Outline: as §2

STEME (common chickweed) = assay: Pre-emergence herbicidal activity, cool season; type: in vivo, Stellaria media; conditions: lowest tested rate with 80% or greater inhibition; rates 300, 100, 30, 10 g/ha; about 14 days
Outline: as §2

[7] = system: AEGCY (jointed goatgrass); assay: Pre-emergence herbicidal activity, cool season; type: in vivo, Aegilops cylindrica; conditions: GR80 = lowest tested rate (300, 100, 30, 10 g/ha) with 80% or greater inhibition; approx. 14 days after treating; 18/13° C.
Description: (§4) Tables 5 to 8 summarize results of tests conducted as described below to determine the pre-emergence herbicidal activity, in the form of a GR80 value, of illustrative compounds of this invention. […] Compounds of the invention were typically applied at rates of 300, 100, 30, and 10 g/ha. Where herbicidal activity was evident but 80% inhibition was not achieved at the highest rate tested, an asterisk (*) is shown in the following tables.
(§5) The pre-emergence tests were conducted by the following procedure. Topsoil was sieved to pass through a 1.27 cm screen. Fertilizer was added to the topsoil and the mixture was then sterilized by heating. The topsoil mixture was placed in a pot and compacted to a depth of 1.0 to 1.25 cm from the top of the pot. Seeds of each of several monocotyledonous and dicotyledonous annual plant species were placed on top of the soil. Additional soil was subsequently placed over the seeds to level-fill the pot. A known amount of each test compound dissolved or suspended in an appropriate organic solvent was diluted with a 50:50 mix of acetone and water and applied to the surface of the soil. After treatment the plants were placed in a greenhouse where they received 0.64 cm of overhead irrigation. All subsequent watering consisted of a light overhead mist and/or subirrigation as needed for germination and growth. Tables 5 and 6 below relate to warm season plant species which were placed after pre-emergence treatment in a greenhouse with a 30/21° C. day/night temperature regime. Tables 7 and 8 below relates to cool season plant species placed after pre-emergence treatment in a greenhouse or growth chamber with an 18/13° C. day/night temperature regime.
(§6) Approximately 14 days after planting and treating, the plants were observed and herbicidal efficacy recorded as percent inhibition by comparison with untreated plants.
(§7) The plant species usually regarded as weeds which were utilized in the tests are identified in the tables below according to the following legend, in which “d” indicates a dicotyledonous species and “m” a monocotyledonous species. All monocotyledonous species included in the tests herein are grasses.

[8] = system: AGRRE (quackgrass (seedling)); assay: Pre-emergence herbicidal activity, cool season; type: in vivo, Elymus repens; conditions: GR80 = lowest tested rate (300, 100, 30, 10 g/ha) with 80% or greater inhibition; approx. 14 days after treating; 18/13° C.
Description: as §4, §5, §6, §7

SETFA (giant foxtail) = assay: Pre-emergence herbicidal activity, warm season; type: in vivo, Setaria faberi; conditions: GR80 = lowest tested rate (300, 100, 30, 10 g/ha) with 80% or greater inhibition; approx. 14 days after treating; 30/21° C.
Outline: as §3

AVEFA (wild oat) = assay: Pre-emergence herbicidal activity, cool season; type: in vivo, Avena fatua; conditions: GR80 = lowest tested rate (300, 100, 30, 10 g/ha) with 80% or greater inhibition; approx. 14 days after treating; 18/13° C.
Outline: as §2

[9] = system: PANMI (wild proso millet); assay: Pre-emergence herbicidal activity, warm season; type: in vivo, Panicum miliaceum; conditions: GR80 = lowest tested rate (300, 100, 30, 10 g/ha) with 80% or greater inhibition; approx. 14 days after treating; 30/21° C.
Outline: as §1

[10] = system: VERPE (creeping speedwell); assay: Pre-emergence herbicidal activity, cool season; type: in vivo, Veronica persicaria; conditions: lowest tested rate with 80% or greater inhibition; rates 300, 100, 30, 10 g/ha; about 14 days
Outline: as §2

SMILES | Pre-emergence activity GR80, POLCO (POLCO (wild buckwheat)) | Pre-emergence activity GR80, GALAP [1] | Pre-emergence activity (GR80) AGSST [2] | Pre-emergence activity (GR80) SETVI (SETVI (green foxtail)) | Pre-emergence activity (GR80) ALOMY (ALOMY (blackgrass)) | Pre-emergence activity (GR80) SOLNI (SOLNI (black nightshade)) | Pre-emergence activity GR80, SINAR (SINAR (wild mustard)) | Pre-emergence activity GR80, LAMPU [4] | Pre-emergence activity GR80, SASKR (SASKR (russian thistle)) | Pre-emergence activity (GR80) DIGSA (DIGSA (large crabgrass)) | Pre-emergence activity (GR80) POROL (POROL (common purslane)) | Pre-emergence activity GR80, STEME (STEME (common chickweed)) | Pre-emergence activity (GR80) AEGCY [7] | Pre-emergence activity (GR80) AGRRE [8] | Pre-emergence activity (GR80) SETFA (SETFA (giant foxtail)) | Pre-emergence activity (GR80) AVEFA (AVEFA (wild oat)) | Pre-emergence activity (GR80) PANMI [9] | Pre-emergence activity GR80, VERPE [10] | other results
CCCN(CC)C(=O)n1cnc(S(=O)(=O)C(F)(F)SCC)n1 [Example 51] | 100 g/ha | 100 g/ha | 10 g/ha | 100 g/ha | 300 g/ha | 300 g/ha | 10 g/ha | 10 g/ha | 100 g/ha | 100 g/ha | 300 g/ha | 10 g/ha | 300 g/ha | 300 g/ha | 100 g/ha | 300 g/ha | 100 g/ha | 10 g/ha | Pre-emergence activity (GR80) SORHA [3]: 100 g/ha; Pre-emergence activity (GR80) SORVU (SORVU (shattercane)): 30 g/ha; Pre-emergence activity (GR80) LOLMG (LOLMG (annual ryegrass)): 100 g/ha; Pre-emergence activity (GR80) BRAPP [5]: 100 g/ha; Pre-emergence activity (GR80) PANDI (PANDI (fall panicum)): 100 g/ha; Pre-emergence activity (GR80) ECHCG (ECHCG (barnyardgrass)): 100 g/ha; Pre-emergence activity (GR80) CHEAL [6]: 10 g/ha
COCCN(C)C(=O)n1cnc(S(=O)(=O)C(F)(F)C(F)(F)Br)n1 [Example 76] | 300 g/ha | 100 g/ha | 100 g/ha | 100 g/ha | 300 g/ha | 300 g/ha | 10 g/ha | 100 g/ha | 30 g/ha | 300 g/ha | 300 g/ha | 300 g/ha | 300 g/ha | 100 g/ha | 300 g/ha | 300 g/ha | 100 g/ha | 30 g/ha | 
